Ki data for 35 compounds are collected here from patent US20090099158A1, “TETRAHYDROISOQUINOLINE COMPOUNDS AS MODULATORS OF THE HISTAMINE H3 RECEPTOR” (priority 2007, published 2009).

Each structure is given as a SMILES string.

For the experiment, the target named is T1, cloned human H3 receptors (Homo sapiens, UniProt Q9Y5N1).
T1 construct: expressed in transfected cells; host or cells: SK-N-MC cells
T1 sequence (Q9Y5N1 whole entry): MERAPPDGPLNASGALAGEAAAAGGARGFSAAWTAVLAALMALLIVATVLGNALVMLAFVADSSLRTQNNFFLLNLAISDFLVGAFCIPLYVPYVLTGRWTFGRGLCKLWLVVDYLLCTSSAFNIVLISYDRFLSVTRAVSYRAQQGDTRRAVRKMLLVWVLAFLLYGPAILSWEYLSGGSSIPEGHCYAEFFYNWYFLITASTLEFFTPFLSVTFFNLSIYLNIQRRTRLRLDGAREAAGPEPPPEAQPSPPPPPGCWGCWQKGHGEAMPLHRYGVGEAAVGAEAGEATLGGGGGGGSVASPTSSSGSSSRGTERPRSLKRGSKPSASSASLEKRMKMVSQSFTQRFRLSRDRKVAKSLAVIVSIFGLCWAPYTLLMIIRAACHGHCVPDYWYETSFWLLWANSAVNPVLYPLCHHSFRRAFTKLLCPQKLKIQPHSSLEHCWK
Description: H3 Receptor Binding (Human). Particulars: cloned human H3 receptors stably expressed in SK-N-MC cells; average of the results obtained. As for the experimental part: Binding of compounds to the cloned human H3 receptors, stably expressed in SK-N-MC cells, was performed as described by Barbier, A. J. et al. (Br. J. Pharmacol. 2004, 143(5), 649-661). Data for compounds tested in this assay are presented in Table 1 as an average of the results obtained.
By Ki is commonly meant the dissociation constant of the complex between target and ligand, obtained from inhibition or displacement. Regarding `CCCc1ccc(C(=O)N2CCc3cc(C(=O)N4CCCN(C5CCC5)CC4)ccc3C2)cc1` [Example 140, [6-(4-Cyclobutyl-[1,4]diazepane-1-carbonyl)-3,4-dihydro-1H-isoquinolin-2-yl]-(4-propyl-phenyl)-methanone], the inhibitory constant (Ki) came out at 2 nM.

`CC(C)(C)OC(=O)N1CCc2cc(C(=O)N3CCN4CCCCC4C3)ccc2C1` (centres unmarked) [Example 4, 6-(Octahydro-pyrido[1,2-a]pyrazine-2-carbonyl)-3,4-dihydro-1H-isoquinoline-2-carboxylic acid tert-butyl ester] displayed an inhibition constant (Ki) of 28 nM.

As for `O=C(c1cccc(Cl)c1)N1CCc2cc(C(=O)N3CCN4CCCCC4C3)ccc2C1` (centres unmarked) [Example 90, [2-(3-Chloro-benzoyl)-1,2,3,4-tetrahydro-isoquinolin-6-yl]-(octahydro-pyrido[1,2-a]pyrazin-2-yl)-methanone], the affinity, expressed as Ki, was 19 nM.

Consider `O=C(CC1CCCC1)N1CCc2cc(C(=O)N3CCN(C4CCC4)CC3)ccc2C1` [Example 43, 1-[6-(4-Cyclobutyl-piperazine-1-carbonyl)-3,4-dihydro-1H-isoquinolin-2-yl]-2-cyclopentyl-ethanone], for which the affinity corresponds to a Ki of 20 nM.

The compound `O=C(c1ccc2c(c1)CCN(C(=O)c1ccccc1)C2)N1CCN(C2CCCCC2)CC1` [Example 85, (2-Benzoyl-1,2,3,4-tetrahydro-isoquinolin-6-yl)-(4-cyclohexyl-piperazin-1-yl)-methanone] showed an inhibition constant (Ki) of 118 nM.

In turn, `Cc1ccc(C(=O)N2CCc3cc(C(=O)N4CCN(C5CCC5)CC4)ccc3C2)cc1` [Example 113, (4-Cyclobutyl-piperazin-1-yl)-[2-(4-methyl-benzoyl)-1,2,3,4-tetrahydro-isoquinolin-6-yl]-methanone] registered an inhibition constant (Ki) of 22 nM.

Consider `O=C(c1ccc2c(c1)CCN(C(=O)c1ccsc1)C2)N1CCN(C2CCC2)CC1` [Example 115, (4-Cyclobutyl-piperazin-1-yl)-[2-(thiophene-3-carbonyl)-1,2,3,4-tetrahydro-isoquinolin-6-yl]-methanone], for which the Ki amounted to 11 nM.

`COc1cccc(C(=O)N2CCc3cc(C(=O)N4CCN(C5CCCCC5)CC4)ccc3C2)c1` [Example 79, (4-Cyclohexyl-piperazin-1-yl)-[2-(3-methoxy-benzoyl)-1,2,3,4-tetrahydro-isoquinolin-6-yl]-methanone] showed a Ki of 169 nM.

As to `CN1CCC(N(C)C(=O)c2ccc3c(c2)CCN(C(=O)C2CCCCC2)C3)C1` (centres unmarked) [Example 161, 2-Cyclohexanecarbonyl-1,2,3,4-tetrahydro-isoquinoline-6-carboxylic acid methyl-(1-methyl-pyrrolidin-3-yl)-amide], the inhibitory constant (Ki) turned out to be 421 nM.

In turn, `CC(C)N1CCc2cc(C(=O)N3CCC(C(C)(C)C)CC3)ccc2C1` [Example 176, (4-tert-Butyl-piperidin-1-yl)-(2-isopropyl-1,2,3,4-tetrahydro-isoquinolin-6-yl)-methanone] came in with an inhibition constant (Ki) of 250 nM.

In the case of `O=C(c1ccc(Cl)cc1)N1CCc2cc(C(=O)N3CCN4CCCCC4C3)ccc2C1` (centres unmarked) [Example 91, [2-(4-Chloro-benzoyl)-1,2,3,4-tetrahydro-isoquinolin-6-yl]-(octahydro-pyrido[1,2-a]pyrazin-2-yl)-methanone], the affinity, expressed as Ki, was 25 nM.

The compound `O=C(c1ccc2c(c1)CCN(C(=O)C1CCCCC1)C2)N1CCN2CCCCC2C1` (centres unmarked) [Example 152, Cyclohexyl-[6-(octahydro-pyrido[1,2-a]pyrazine-2-carbonyl)-3,4-dihydro-1H-isoquinolin-2-yl]-methanone] had a Ki of 9 nM.

The compound `CC(=O)N1CCc2cc(C(=O)N3CCN(C(C)C)CC3)ccc2C1` [Example 29, 1-[6-(4-Isopropyl-piperazine-1-carbonyl)-3,4-dihydro-1H-isoquinolin-2-yl]-ethanone] displayed an inhibition constant (Ki) of 80 nM.

Turning to `COc1cccc(C(=O)N2CCc3cc(C(=O)N4CCN5CCCCC5C4)ccc3C2)c1` (centres unmarked) [Example 93, [2-(3-Methoxy-benzoyl)-1,2,3,4-tetrahydro-isoquinolin-6-yl]-(octahydro-pyrido[1,2-a]pyrazin-2-yl)-methanone], the Ki was 17 nM.

`O=C(c1ccc2c(c1)CCN(C(=O)c1ccccc1F)C2)N1CCN(C2CCCCC2)CC1` [Example 72, (4-Cyclohexyl-piperazin-1-yl)-[2-(2-fluoro-benzoyl)-1,2,3,4-tetrahydro-isoquinolin-6-yl]-methanone] returned a Ki of 80 nM.

For `O=C(c1ccc2c(c1)CCN(C1CCC1)C2)N1CCOCC1` [Example 186, (2-Cyclobutyl-1,2,3,4-tetrahydro-isoquinolin-6-yl)-morpholin-4-yl-methanone], the Ki was 1800 nM.

For the compound `O=C(c1ccc2c(c1)CCN(C1CCCC1)C2)N1CCOCC1` [Example 172, (2-Cyclopentyl-1,2,3,4-tetrahydro-isoquinolin-6-yl)-morpholin-4-yl-methanone], the affinity, expressed as Ki, was 2800 nM.

As to `O=C(c1ccc2c(c1)CCN(C(=O)c1cccc(Cl)c1)C2)N1CCN(C2CCC2)CC1` [Example 119, (3-Chloro-phenyl)-[6-(4-cyclobutyl-piperazine-1-carbonyl)-3,4-dihydro-1H-isoquinolin-2-yl]-methanone], the Ki stood at 11 nM.

`O=C(C1CCCCC1)N1CCc2cc(CN3CCOCC3)ccc2C1` [Example 167, Cyclohexyl-(6-morpholin-4-ylmethyl-3,4-dihydro-1H-isoquinolin-2-yl)-methanone] showed an inhibition constant (Ki) of 1390 nM.

As for `O=C(c1ccc2c(c1)CCN(C(=O)C1CCC1)C2)N1CCN(C2CCC2)CC1` [Example 31, Cyclobutyl-[6-(4-cyclobutyl-piperazine-1-carbonyl)-3,4-dihydro-1H-isoquinolin-2-yl]-methanone], the Ki amounted to 87 nM.

In turn, `O=C(c1ccc2c(c1)CCN(S(=O)(=O)c1ccccc1)C2)N1CCN(C2CCC2)CC1` [Example 103, (2-Benzenesulfonyl-1,2,3,4-tetrahydro-isoquinolin-6-yl)-(4-cyclobutyl-piperazin-1-yl)-methanone] came in with an inhibition constant Ki of 22 nM.

`N#Cc1ccc(C(=O)N2CCc3cc(C(=O)N4CCN5CCCCC5C4)ccc3C2)cc1` (centres unmarked) [Example 95, 4-[6-(Octahydro-pyrido[1,2-a]pyrazine-2-carbonyl)-3,4-dihydro-1H-isoquinoline-2-carbonyl]-benzonitrile] returned a Ki of 16 nM.

`CC(C)(C)c1ccc(C(=O)N2CCc3cc(C(=O)N4CCN(C5CCCCC5)CC4)ccc3C2)cc1` [Example 84, [2-(4-tert-Butyl-benzoyl)-1,2,3,4-tetrahydro-isoquinolin-6-yl]-(4-cyclohexyl-piperazin-1-yl)-methanone] came in with a Ki of 180 nM.

`CC(C)N1CCCN(C(=O)c2ccc3c(c2)CCN(C(=O)C2CCCCC2)C3)CC1` [Example 162, Cyclohexyl-[6-(4-isopropyl-[1,4]diazepane-1-carbonyl)-3,4-dihydro-1H-isoquinolin-2-yl]-methanone] showed a Ki of 4 nM.

`O=C(c1ccc2c(c1)CCN(C1CCC1)C2)N1CCCCC1` [Example 185, (2-Cyclobutyl-1,2,3,4-tetrahydro-isoquinolin-6-yl)-piperidin-1-yl-methanone]: the inhibitory constant (Ki) amounted to 2100 nM.

`O=C(c1ccc2c(c1)CCN(C(=O)c1ccc(F)cc1)C2)N1CCN(C2CCC2)CC1` [Example 125, (4-Cyclobutyl-piperazin-1-yl)-[2-(4-fluoro-benzoyl)-1,2,3,4-tetrahydro-isoquinolin-6-yl]-methanone] displayed an inhibitory constant (Ki) of 17 nM.

For `O=C(C1CCCCC1)N1CCc2cc(CN3CCCCC3)ccc2C1` [Example 166, Cyclohexyl-(6-piperidin-1-ylmethyl-3,4-dihydro-1H-isoquinolin-2-yl)-methanone], the inhibition constant Ki is 45 nM.

For `Cc1cccc(C(=O)N2CCc3cc(C(=O)N4CCN(C5CCC5)CC4)ccc3C2)c1` [Example 120, [6-(4-Cyclobutyl-piperazine-1-carbonyl)-3,4-dihydro-1H-isoquinolin-2-yl]-m-tolyl-methanone], the affinity corresponds to a Ki of 12 nM.

`O=C(c1ccc2c(c1)CCN(C(=O)c1ccccc1Cl)C2)N1CCN2CCCCC2C1` (centres unmarked) [Example 89, [2-(2-Chloro-benzoyl)-1,2,3,4-tetrahydro-isoquinolin-6-yl]-(octahydro-pyrido[1,2-a]pyrazin-2-yl)-methanone] gave a Ki of 21 nM.

In the case of `COc1ccc(C(=O)N2CCc3cc(C(=O)N4CCC[C@H]4CN4CCCC4)ccc3C2)cc1` [Example 60, (S)-(4-Methoxy-phenyl)-[6-(2-pyrrolidin-1-ylmethyl-pyrrolidine-1-carbonyl)-3,4-dihydro-1H-isoquinolin-2-yl]-methanone], the inhibition constant (Ki) was found to be 21 nM.

For the compound `O=C(c1ccc2c(c1)CCN(C(=O)C1CCCCC1)C2)N1CCN(C2CCCC2)CC1` [Example 159, Cyclohexyl-[6-(4-cyclopentyl-piperazine-1-carbonyl)-3,4-dihydro-1H-isoquinolin-2-yl]-methanone], the inhibition constant (Ki) worked out at 37 nM.

In the case of `CCS(=O)(=O)N1CCc2cc(C(=O)N3CCN(C4CCC4)CC3)ccc2C1` [Example 100, (4-Cyclobutyl-piperazin-1-yl)-(2-ethanesulfonyl-1,2,3,4-tetrahydro-isoquinolin-6-yl)-methanone], the Ki was determined as 35 nM.

`O=C(c1ccc2c(c1)CCN(C(=O)C1CCCCC1)C2)N1CCN(CC2CCCO2)CC1` (centres unmarked) [Example 151, Cyclohexyl-{6-[4-(tetrahydro-furan-2-ylmethyl)-piperazine-1-carbonyl]-3,4-dihydro-1H-isoquinolin-2-yl}-methanone] registered a Ki of 5200 nM.

`O=C(c1ccc2c(c1)CCN(C1CCCC1)C2)N1CCCCC1` [Example 191, (2-Cyclopentyl-1,2,3,4-tetrahydro-isoquinolin-6-yl)-piperidin-1-yl-methanone] returned an inhibitory constant (Ki) of 2200 nM.

Turning to `O=C(c1ccc2c(c1)CCN(C(=O)C1CCCCC1)C2)N1CC2CN(C3CCC3)CC2C1` (centres unmarked) [Example 163, (5-Cyclobutyl-hexahydro-pyrrolo[3,4-c]pyrrol-2-yl)-(2-cyclohexanecarbonyl-1,2,3,4-tetrahydro-isoquinolin-6-yl)-methanone], the Ki was 170 nM.
